Laboratory results taken from patent publication US20220380764A1, “MOLECULAR GUIDE SYSTEM PEPTIDES AND USES THEREOF” (SRI International, priority 2019, published 2022).
Square brackets hold non-standard residues; d marks the D form. Primed or numbered codes have the meaning given here. Peptide text beside a SMILES is read from it. PEG12 = NCCOCCOCCOCCOCCOCCOCCOCCOCCOCCOCCOCCOCCC(=O)O; PEG11′ = not defined here

Assays:
H358 Cells = experiment: SRI_MGS2_V4 uptake profile (effective dose, stoichiometry, rate of uptake); type: cell-based
From the text: (§1) 1. Example 1: Effective Dose, Stoichiometry, and Rate of Uptake for MGS 2

H1993 Cells [1] = experiment: as above; type: cell-based
From the text: as §1

H1299 Cells = experiment: as above; type: cell-based
From the text: as §1

H2009 Cells = experiment: as above; type: cell-based
From the text: as §1

[2] = system: Non-Small Cell Lung Cancer; experiment: Cellular location of MGS, carcinomas and solid tumors; type: cell-based; settings: for MSG Code and Cellular Location: Table 2, Intracellular = uptake confirmed, exact compartment not determined; for Cellular Location: Table 3, Carcinomas and Solid Tumors
From the text: (§2) The FOX-Three platform is based on established phage display libraries containing 10^9-10^12 candidate peptide-based MGS members that can be rapidly screened against target cells and subcellular systems to identify specifically targeted MGSs (FIG. 2). Peptides are a well-understood class of biomolecule that are readily synthesized by biological processes and through man-made chemical processes. […] It can be applied to any cell type, regardless of knowledge about the molecular features of that cell, producing a lead MGS in 2-4 weeks. Selected peptide-based MGSs are then readily engineered for optimal performance.
(§3) The FOX-Three Platform has already been validated for targeting of cells and subcellular components. A number of validated MGSs are in various stages of development (Table 1) for a variety of cell targeting systems. Methods of conjugating a variety of payloads to the peptide MGSs have been established without disrupting their targeting ability. […] The FOX-Three screening process was recently refined to include subcellular location targeting as a selection criteria. MGSs have been isolated that accumulate in lysosomes, autophagosomes, and Golgi inside cancer cells, as well as target the plasma membrane.

[3] = system: Carcinomas and Solid Tumors; experiment: In vivo targeting of MGS; settings: Table 3; homing to target cell in an animal model
From the text: as §3

H1993 Cells [4] = experiment: siRNA internalization with and without MGS (FIG. 5); type: cell-based; settings: SA-647, 5′-Biotinylated siRNA+SA-647, 3′-Biotinylated siRNA+SA-647, alone or conjugated to the MGS
Experimental: With this objective, novel MGSs were applied to facilitate cell-specific delivery of siRNA. As previously mentioned, these MGSs have the unique ability to bind to specific epithelial-derived cancer cell types, and upon binding, triggers rapid internalization and trafficking to specific subcellular locations. The chemically optimized MGSs have 1-2 nM affinities for their cellular targets, serum stability greater than 48 hours, and approximately 50-1000-fold specificity for targeted cancer cells over normal control cells. […] Internalization experiments were first performed using H1993 cells. For this set of experiments, the group of bars at the far right are 5′-Biotinylated siRNA+SA-647 and 3′-Biotinylated siRNA+SA-647 without MGS. The middle and far left bar groups show SA-647, 5′-Biotinylated siRNA+SA-647, and 3′-Biotinylated siRNA+SA-647 conjugated to a first MGS (SRI_MGS1_V4, right) and a second MGS (SRI_MGS2_V4, middle).

Dendritic Cells = experiment: Cellular location of MGS, dendritic cells; type: cell-based; settings: Table 2
From the text: as §2

Lymphoma Cells = experiment: Cellular location of MGS, lymphoma and leukemia; type: cell-based; settings: Table 2
From the text: as §2

Cardiomyocytes = experiment: Cellular location of MGS, cardiomyocytes; type: cell-based; settings: Table 2
From the text: as §2

Compound: CC(=O)N[C@@H](Cc1ccc(O)cc1)C(=O)N[C@@H](C)C(=O)N[C@@H](C)C(=O)N[C@@H](Cc1c[nH]c2ccccc12)C(=O)N1CCC[C@H]1C(=O)N[C@@H](C)C(=O)N[C@@H](CO)C(=O)NCC(=O)N[C@@H](C)C(=O)N[C@@H](Cc1c[nH]c2ccccc12)C(=O)N[C@H](C(=O)NCCOCCOCCOCCOCCOCCOCCOCCOCCOCCOCCOCCOCCC(=O)N[C@@H](CS)C(N)=O)[C@@H](C)O [SRI_MGS2_V4, CH3CO-YAAWPASGAWT-PEG11-C-NH2] (Ac-YAAWPASGAWT[PEG12]C-NH2)
- Molecules Internalized, 6 H (H358 Cells; H358 cells, 6 H with constant incubation of 20 nM MGS): 97100 ± 4830 molecules
- Saturation (molecules) (H358 Cells; H358 cells, average number of MGS molecules internalized per cell at saturation concentration at 1 H): 99900 ± 9640 molecules
- t1/2 (H358 Cells; H358 cells, rate of uptake): 11 min
- Specificity (H358 Cells; ratio of MGS uptake on H358 vs. normal human bronchial epithelial cell line (HBEC)): 1100
- Molecules Internalized, 6 H (H1993 Cells [1]; H1993 cells, 6 H with constant incubation of 20 nM MGS): 134300 ± 6300 molecules
- Saturation (molecules) (H1993 Cells [1]; H1993 cells, average number of MGS molecules internalized per cell at saturation concentration at 1 H): 141600 ± 28200 molecules
- t1/2 (H1993 Cells [1]; H1993 cells, rate of uptake): 12 min
- Specificity (H1993 Cells [1]; ratio of MGS uptake on H1993 vs. normal human bronchial epithelial cell line (HBEC)): 2300
- Molecules Internalized, 6 H (H1299 Cells; H1299 cells, 6 H with constant incubation of 20 nM MGS): 125500 ± 5430 molecules
- Saturation (molecules) (H1299 Cells; H1299 cells, average number of MGS molecules internalized per cell at saturation concentration at 1 H): 112800 ± 15500 molecules
- t1/2 (H1299 Cells; H1299 cells, rate of uptake): 37 min
- Specificity (H1299 Cells; ratio of MGS uptake on H1299 vs. normal human bronchial epithelial cell line (HBEC)): 1400
- Molecules Internalized, 6 H (H2009 Cells; H2009 cells, 6 H with constant incubation of 20 nM MGS): 49500 ± 2230 molecules
- Saturation (molecules) (H2009 Cells; H2009 cells, average number of MGS molecules internalized per cell at saturation concentration at 1 H): 68300 ± 3030 molecules
- t1/2 (H2009 Cells; H2009 cells, rate of uptake): 13 min
- Specificity (H2009 Cells; ratio of MGS uptake on H2009 vs. normal human bronchial epithelial cell line (HBEC)): 560

Compound: AHTIDDEWASYHMQQWNSPP (MGS peptide) [MGS_H2009.4]
- MSG Code and Cellular Location [2]: MGS_H2009.4_Golgi/ER

Compound: ATEPRKQYATPRVFWTDAPG (MGS peptide) [MGS_HCC15.1]
- In Vivo Targeting [3]: Yes
- MSG Code and Cellular Location [2]: MGS_HCC15.1_Intracellular
- Cellular Location [2]: Lysosome

Compound: CH3CO-RGDLATLRQL-PEG11-YC-NH2 (Ac-RGDLATLRQL[PEG11′]YC-NH2) [SRI_MGS1_V4]
- molecules internalized per cell (H1993 Cells [4]): approximately 25000 molecules internalized per cell

Compound: EAMNSAEQSAAVVQWEKRRI (MGS peptide) [MGS_H460.1]
- MSG Code and Cellular Location [2]: MGS_H460.1_PlasmaMembrane

Compound: EHPWFNMWSWATQVQE (MGS peptide) [MGS_H2009.2]
- MSG Code and Cellular Location [2]: MGS_H2009.2_Lysosome
- Cellular Location [2]: Lysosome

Compound: FAAKRAEWWDPGQLWDAVWN (MGS peptide) [MGS_H1993.2]
- MSG Code and Cellular Location [2]: MGS_H1993.2_Intracellular

Compound: FEEFYSRQSNTIPYPQQYKG (MGS peptide) [MGS_H2009.5]
- MSG Code and Cellular Location [2]: MGS_H2009.5_ER/Lysosome

Compound: FHAVPQSFYTAP (MGS peptide) [MGS_HCC15.2]
- In Vivo Targeting [3]: Yes
- MSG Code and Cellular Location [2]: MGS_HCC15.2_Lysosomal
- Cellular Location [2]: Lysosome

Compound: GPEDTSRAPENQQKTFHRRW (MGS peptide) [MGS_XS52.1]
- MSG Code and Cellular Location (Dendritic Cells): MGS_XS52.1_Intacellular

Compound: KSREHVNNSACPSKRITAAL (MGS peptide) [MGS_A20.2]
- MSG Code and Cellular Location (Lymphoma Cells): MGS_A20.2_ Plasma Membrane

Compound: LQWRRDDNVHNFGVWARYRL (MGS peptide) [MGS_1299.3]
- In Vivo Targeting [3]: Yes
- MSG Code and Cellular Location [2]: MGS_H1299.3_Autophagosomes
- Cellular Location [2]: Autophagasome

Compound: MDGATWWTQLDPLLVWEGET (MGS peptide) [MGS_H1993.5]
- MSG Code and Cellular Location [2]: MGS_H1993.5_Intracellular

Compound: MTVCNASQRQAHAQATAVSL (MGS peptide) [MGS_A549.1]
- MSG Code and Cellular Location [2]: MGS_A549.1_Intracellular

Compound: QEALEEWFWKMMPWSGPSGQ (MGS peptide) [MGS_H1993.3]
- MSG Code and Cellular Location [2]: MGS_H1993.3_Intracellular

Compound: RGDLATLRQLAQEDGVVGVR (MGS peptide) [MGS_H2009.1]
- In Vivo Targeting [3]: Yes
- MSG Code and Cellular Location [2]: MGS_H2009.1_Golgi
- Cellular Location [2]: Golgi

Compound: SADWFQGPAEWLLEGWMGPL (MGS peptide) [MGS_H1993.6]
- MSG Code and Cellular Location [2]: MGS_H1993.6_Intracellular

Compound: SAKTAVSQRVWLPSHRGGEP (MGS peptide) [MGS_A20.1]
- MSG Code and Cellular Location (Lymphoma Cells): MGS_A20.1_PlasmaMembrane

Compound: SVEYWGERMYYDVMESLGFS (MGS peptide) [MGS_H1993.1]
- MSG Code and Cellular Location [2]: MGS_H1993.1_Lysosome

Compound: TWTDFGQWPWPFGAEGTRAF (MGS peptide) [MGS_H1993.4]
- MSG Code and Cellular Location [2]: MGS_H1993.4_Pre-mitotic cells

Compound: VSQTMRQTAVPLLWFWTGSL (MGS peptide) [MGS_H1299.1]
- MSG Code and Cellular Location [2]: MGS_H1299.1_Intracellular

Compound: WLSEAGPVVTVRALRGTGSW (MGS peptide) [MGS_PCM.1]
- MSG Code and Cellular Location (Cardiomyocytes): MGS_PCM.1_Intracellular
- MSG Code and Cellular Location (Lymphoma Cells): MGS_PCM.1_ Plasma Membrane

Compound: YAAWPASGAWTGTAPCSAGT (MGS peptide) [MGS_1299.2]
- In Vivo Targeting [3]: Yes
- MSG Code and Cellular Location [2]: MGS_H1299.2_Intracellular
- Cellular Location [2]: Lysosome

Compound: YPGSPTQYPSSMHEYHSSSE (MGS peptide) [MGS_H2009.3]
- MSG Code and Cellular Location [2]: MGS_H2009.3_Lysosome
